Reference: ChEMBL document CHEMBL3046057, “Synthesis and leishmanicidal activity of quinolinetriclosan and quinolineeugenol hybrids” (Med Chem Res, 2012)
Converted amounts (≈) assume the structure as drawn.

Assays:
Leishmania panamensis [1] = assay: Leishmanicidal activity against axenic amastigote stage of Leishmania panamensis MHOM/CO/87/UA140epir GFP assessed as parasite viability after 72 hr by MTT assay; format: functional, organism-based
[2] = Selectivity index, ratio of LC50 for human U937 cells to EC50 for axenic amastigote stage of Leishmania panamensis MHOM/CO/87/UA140epir GFP; format: toxicity, cell-based, U-937; details: for selectivity ratio: U937 cells, axenic amastigotes of Leishmania panamensis, read-out: Selectivity Index
[3] = (§1) Cytotoxicity against Homo sapiens (human) U937 cells assessed as cell viability after 72 hr by MTT assay; format: cell-based, U-937; details: U937 cells, read-out: LC50
[4] = Selectivity index, ratio of LC50 for human U937 cells to EC50 for intracellular amastigote stage of Leishmania panamensis MHOM/CO/87/UA140epir GFP infected in human U937 cells; format: toxicity, cell-based, U-937; details: for selectivity ratio: read-out: Selectivity Index
Leishmania panamensis [5] = assay: Leishmanicidal activity against intracellular amastigote stage of Leishmania panamensis MHOM/CO/87/UA140epir GFP infected in human U937 cells assessed as parasite viability after 72 hr by flow cytometric analysis; format: functional, organism-based, U-937
U-937 = assay: as §1; format: cell-based; details: u-937, 72 h
[6] = Leishmania panamensis, MHOM/CO/87/UA140epir GFP, 72 h, read-out: EC50
[7] = Leishmania panamensis, MHOM/CO/87/UA140epir GFP, U-937, 72 h, read-out: EC50

Compound	EC50 (Leishmania panamensis [1]; [6])	selectivity ratio [2]	CC50 at 72 h [3]	selectivity ratio [4]	EC50 (Leishmania panamensis [5]; [7])	EC50 (Leishmania panamensis [1])	Selectivity Index ([4]; u-937)	EC50 (Leishmania panamensis [5]; u-937)	Selectivity Index ([2]; u-937)	LC50 (U-937)
C=CCc1ccc(O)c(OC)c1 [EUGENOL]	21.4 µg/mL (≈ 130 µM)	0.7	14.2 µg/mL (≈ 86.5 µM)	–	–	–	–	–	–	–
Cc1ccc2cccc(OCCCCCOc3cc(Cl)ccc3Oc3ccc(Cl)cc3Cl)c2n1	4.1 µg/mL (≈ 7.93 µM)	14.4	59.2 µg/mL (≈ 115 µM)	24.6	2.4 µg/mL (≈ 4.64 µM)	–	–	–	–	–
C=CCc1ccc(OCCCCCCCCOc2cccc3ccc(C)nc23)c(OC)c1	29.6 µg/mL (≈ 68.3 µM)	0.5	14.7 µg/mL (≈ 33.9 µM)	3.8	3.9 µg/mL (≈ 8.99 µM)	–	–	–	–	–
MEGLUMINE ANTIMONATE	–	–	–	–	–	> 1000 µg/mL	> 147.05	6.8 µg/mL	> 1	> 1000 µg/mL
Cc1ccc2cccc(O)c2n1 [8-HYDROXY QUINALDINE]	2.6 µg/mL (≈ 16.3 µM)	2.9	7.6 µg/mL (≈ 47.7 µM)	–	–	–	–	–	–	–
Oc1cc(Cl)ccc1Oc1ccc(Cl)cc1Cl [TRICLOSAN]	11.3 µg/mL (≈ 39 µM)	0.4	4.8 µg/mL (≈ 16.6 µM)	–	–	–	–	–	–	–
C=CCc1ccc(OCCCCCCCCCCCCOc2cccc3ccc(C)nc23)c(OC)c1	> 100 µg/mL	–	82.9 µg/mL (≈ 169 µM)	4.7	17.4 µg/mL (≈ 35.5 µM)	–	–	–	–	–
Cc1ccc2cccc(OCCCCCCCCCOc3cc(Cl)ccc3Oc3ccc(Cl)cc3Cl)c2n1	> 100 µg/mL	> 2	> 200 µg/mL	–	–	–	–	–	–	–
Cc1ccc2cccc(OCCCOc3cc(Cl)ccc3Oc3ccc(Cl)cc3Cl)c2n1	23.6 µg/mL (≈ 48.3 µM)	> 8.5	> 200 µg/mL	> 31.2	6.4 µg/mL (≈ 13.1 µM)	–	–	–	–	–
Cc1ccc2cccc(OCCCCCCCCCCCCOc3cc(Cl)ccc3Oc3ccc(Cl)cc3Cl)c2n1	> 100 µg/mL	> 2	> 200 µg/mL	–	–	–	–	–	–	–
C=CCc1ccc(OCCCCOc2cccc3ccc(C)nc23)c(OC)c1	38.9 µg/mL (≈ 103 µM)	0.5	31.3 µg/mL (≈ 82.9 µM)	< 1	> 31.3 µg/mL	–	–	–	–	–
C=CCc1ccc(OCCCCCCCCCOc2cccc3ccc(C)nc23)c(OC)c1	21.1 µg/mL (≈ 47.1 µM)	0.7	14.1 µg/mL (≈ 31.5 µM)	–	–	–	–	–	–	–
C[C@@H]1[C@H](O)[C@@H](C)/C=C/C=C/C=C/C=C/C=C/C=C/C=C/[C@H](O[C@@H]2O[C@H](C)[C@@H](O)[C@H](N)[C@@H]2O)C[C@@H]2O[C@](O)(C[C@@H](O)C[C@@H](O)[C@H](O)CC[C@@H](O)C[C@@H](O)CC(=O)O[C@H]1C)C[C@H](O)[C@H]2C(=O)O [AMPHOTERICIN B]	0.05 µg/mL (≈ 0.0541 µM)	776	38.8 µg/mL (≈ 42 µM)	970	0.04 µg/mL (≈ 0.0433 µM)	–	–	–	–	–
C=CCc1ccc(OCCCCCOc2cccc3ccc(C)nc23)c(OC)c1	9.5 µg/mL (≈ 24.3 µM)	1	10.5 µg/mL (≈ 26.8 µM)	–	–	–	–	–	–	–
Cc1ccc2cccc(OCCCCOc3cc(Cl)ccc3Oc3ccc(Cl)cc3Cl)c2n1	9.7 µg/mL (≈ 19.3 µM)	> 20.6	> 200 µg/mL	> 2	> 100 µg/mL	–	–	–	–	–
Cc1ccc2cccc(OCCCCCCCCOc3cc(Cl)ccc3Oc3ccc(Cl)cc3Cl)c2n1	> 100 µg/mL	> 2	> 200 µg/mL	–	–	–	–	–	–	–
C=CCc1ccc(OCCCOc2cccc3ccc(C)nc23)c(OC)c1	6.9 µg/mL (≈ 19 µM)	1	6.8 µg/mL (≈ 18.7 µM)	–	–	–	–	–	–	–
